Data published in US20260008760A1, “DIPEPTIDYL PEPTIDASE 1 INHIBITORS AND USES THEREOF” (Insmed Incorporated, priority 2024, published 2026).
pIC50: −log10 of the molar value.

Experiments:
DPP1 in HL-60 cells = DPP1 in HL-60 cells (Homo sapiens, UniProt P53634); assay: DPP1 Cell Single-Point Percent Inhibition Testing; format: cell-based; set-up: host or cells: HL-60 cells; details: final compound concentration 5 nM, n = 1
Procedure, shortened: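 HL-60 cells in unsupplemented RPMI preincubated 60 min at 37 °C with test article (5 nM final, 0.1% DMSO), then given cell-permeable H-Gly-Phe-AFC (100 μM final) for 30 min. Fluorescence at 400/505 nm; percent inhibition versus vehicle after subtracting cell-free background and 10 μM brensocatib non-specific signal.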

human DPP1 enzyme = human DPP1 enzyme (Homo sapiens, UniProt P53634); assay: Human DPP1 Enzyme IC50 Assay; format: biochemical; set-up: was first proteolytically processed into its mature form using recombinant human cathepsin L; purchased R&D Systems; details: activated recombinant human DPP1, 400 μM H-Gly-Arg-AMC, 10 minutes pre-incubation at 37° C., pH 6.0; average of n runs; read-out: Avg. IC50 (Human DPP1 enzyme IC50 value ranges)
Chain of human DPP1 enzyme (P53634 25-134 limits assumed): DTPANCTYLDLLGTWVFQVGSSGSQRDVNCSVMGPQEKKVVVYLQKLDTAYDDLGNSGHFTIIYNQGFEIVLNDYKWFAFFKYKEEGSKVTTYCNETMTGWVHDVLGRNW
Chain of human DPP1 enzyme (P53634 231-394 limits assumed): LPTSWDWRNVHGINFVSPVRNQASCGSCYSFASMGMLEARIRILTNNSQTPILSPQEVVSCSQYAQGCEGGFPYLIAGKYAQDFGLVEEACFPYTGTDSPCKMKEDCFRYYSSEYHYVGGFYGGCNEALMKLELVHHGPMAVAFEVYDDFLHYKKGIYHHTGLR
Chain of human DPP1 enzyme (P53634 395-463 limits assumed): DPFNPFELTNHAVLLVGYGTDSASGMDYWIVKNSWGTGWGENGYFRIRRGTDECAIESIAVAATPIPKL
Procedure, shortened: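 IC50 came from a four-parameter fit of activity relative to no-compound control, with fluorescence (Ex 350/Em 450 nm) read every 5 min for 90 min at 37 °C using 400 μM final H-Gly-Arg-AMC. Cathepsin L-matured human recombinant DPP1 was preincubated 10 min with compound at pH 6.0 (MES, DTT, 1% DMSO).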

active mouse DPP1 enzyme = target: T1, active mouse DPP1 enzyme (Mus musculus, UniProt P97821); assay: Mouse DPP1 Enzyme IC50 Assay; format: biochemical; details: active mouse DPP1 enzyme, H-Gly-Arg-AMC substrate, 10 minutes pre-incubation at 37° C., pH 5.5; average of n runs; read-out: Avg. IC50 (Mouse DPP1 enzyme IC50 value ranges)
T1 construct: Each subunit is composed of an N-terminal fragment, a heavy chain and a light chain; purchased R&D Systems
T1 sequence (P97821 25-134 limits assumed): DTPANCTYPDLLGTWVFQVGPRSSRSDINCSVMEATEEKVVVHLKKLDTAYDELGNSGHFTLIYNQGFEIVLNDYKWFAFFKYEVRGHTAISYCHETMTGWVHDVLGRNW
T1 sequence (P97821 231-393 limits assumed): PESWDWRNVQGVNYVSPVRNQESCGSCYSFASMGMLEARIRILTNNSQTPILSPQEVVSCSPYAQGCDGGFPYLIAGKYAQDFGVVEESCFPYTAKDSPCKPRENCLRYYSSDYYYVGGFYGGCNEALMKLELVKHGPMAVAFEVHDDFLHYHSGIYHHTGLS
T1 sequence (P97821 394-462 limits assumed): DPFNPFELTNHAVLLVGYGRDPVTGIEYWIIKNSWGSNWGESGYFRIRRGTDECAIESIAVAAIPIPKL
Experimental: Example 96: Mouse DPP1 Enzyme IC50 Assay
Test articles were applied to active mouse DPP1 enzyme (R&D Systems; Minneapolis, MN) in Assay Buffer (50 mM MES pH 5.5, 50 mM NaCl, 5 mM DTT) in a total reaction volume of 125 μL. 25 μL of compound in Assay Buffer plus […] was first added to 50 μL of active mouse DPP1 enzyme at a concentration of 62.5 pg/μL and allowed to pre-incubate for 10 minutes at 37° C. after which 50 μL of […] H-Gly-Arg-AMC substrate (Bachem; St. Torrance, CA) was added, giving final substrate concentration of 400 µM and a final DMSO concentration of […]. Substrate cleavage was measured for 90 minutes at 37° C., with fluorescence at Excitation/Emission 350/450 nm measured every 5 minutes. DPP1 concentration was interpolated based on its activity relative to a standard curve of recombinant active mouse DPP enzyme. IC50 values for each compound were calculated via the XLFit (IDBS Version 5.3.1.3) Add-On to Microsoft Excel using the four parameter fit equation y=(A+((B−A)/(1+((C/x)^D)))), which appears as equation number 205 (4 Parameter Logistic Model or Sigmoidal Dose-Response Model) in XLFit. Default constraints were used for each Parameter. IC50 was defined as the compound concentration at which 50% of enzyme activity was inhibited when compared to the no-compound control.
In Table 2, *** represent average IC50≤5 nM, ** represents average IC50 in the range of 5-20 nM, and * represents average IC50 in the range of ≥20 nM, where the designations were made solely based on the average value without taking into account of the standard deviations.

Chain of DPP1 in HL-60 cells (P53634 25-463): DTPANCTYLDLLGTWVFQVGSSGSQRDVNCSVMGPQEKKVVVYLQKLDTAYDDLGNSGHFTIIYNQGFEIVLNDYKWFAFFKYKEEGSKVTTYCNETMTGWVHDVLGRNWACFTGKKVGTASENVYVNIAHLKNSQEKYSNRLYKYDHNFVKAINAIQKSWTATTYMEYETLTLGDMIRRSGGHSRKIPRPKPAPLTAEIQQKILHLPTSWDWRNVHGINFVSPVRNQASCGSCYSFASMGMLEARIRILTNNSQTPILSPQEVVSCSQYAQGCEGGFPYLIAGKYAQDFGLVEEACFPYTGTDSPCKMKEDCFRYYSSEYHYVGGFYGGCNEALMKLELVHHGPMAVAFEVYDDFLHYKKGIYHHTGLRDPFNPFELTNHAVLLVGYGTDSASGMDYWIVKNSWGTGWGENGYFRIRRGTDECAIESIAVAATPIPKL

| SMILES | inhibition at 0.005 µM (DPP1 in HL-60 cells) [%] | pIC50 (human DPP1 enzyme) | pIC50 (active mouse DPP1 enzyme) |
| --- | --- | --- | --- |
| CN1CCCC2(C1)C(=O)N(C)c1ccc(-c3ccc(C[C@@H](C#N)NC(=O)[C@@H]4CNCCCO4)cc3)cc12 (stereo partly drawn) [Compound 18, (2S)—N-[(1S)-1-cyano-2-(4-{1,1′-dimethyl-2-oxospiro[indole-3,3′-piperidin]-5-yl}phenyl)ethyl]-1,4-oxazepane-2-carboxamide] | ≤ 76.5 | < 7.82 | < 7.70 |
| N#C[C@H](Cc1ccc(-c2cnc3c(n2)CCCC3)cc1)NC(=O)[C@@H]1CNCCCO1 [Compound A11, (2S)—N-[(1S)-1-cyano-2-[4-(5,6,7,8-tetrahydroquinoxalin-2-yl)phenyl]ethyl]-1,4-oxazepane-2-carboxamide] | ≤ 76.5 | < 7.82 | < 7.70 |
